What was measured:
A375 (melanoma) = assay: In vitro cytotoxic activity MTT assay, A375; format: cell-based; settings: Homo sapiens, A-375; A375 (melanoma) cells, exposed for 96 hours; read-out: IC50, concentration of compound eliciting a 50% inhibition of cell proliferation
Method: (§1) Compounds 1-16 were screened for their in vitro cytotoxic activity utilizing a 3-(4,5-dimethyl-thiazol-2-yl)-2,5-diphenyltetrazolium bromide (MTT) assay against selected cancer human cell lines consisting of PC3 (prostate), HCT116 (colon), A375 (melanoma), H1299 (lung), MIAPaCa-2 (pancreas), HL60 (leukemia), MCF7 (breast), MDA-MB-231 (breast) (T. Mosmann, J. Immunol. Meth., 1983, 65, 55-63). The cells were cultured at 37° C. in RMPI1640 medium supplemented with 10% fetal bovine serum, 50 IU/mL penicillin, and 50 μg/mL streptomycin in a 5% CO2 incubator. All cells were sub-cultured 3 times/week by trypsinisation. Viable cells were seeded and allowed to adhere for 12 h before a test drug was added in 96-well plates at an initial density of 1.0×10^5 cells/mL. Tumor cell lines were separately exposed to various concentrations of the tested compounds followed by incubation at a temperature of 37° C. during 96 h inside a medium of fresh RMPI 1640. Cells were subsequently incubated at 37° C. using MTT at 0.5 mg/mL during 4 hours. After removal of supernatant, formazan crystals were dissolved in isopropanol and the optical density was measured at 570 nm. CX-4945 was used as a positive control.

recombinant human CK2 = biological target: T1, recombinant human CK2 (Homo sapiens, UniProt P68400); assay: CK2 Kinase Assay (radiometric, 33P-ATP); format: biochemical; settings: final ATP concentration 15 μM, 10 min at 30° C., eight concentrations; read-out: protein kinase CK2 IC50
T1 construct: purchased Millipore
T1 sequence (P68400 whole entry): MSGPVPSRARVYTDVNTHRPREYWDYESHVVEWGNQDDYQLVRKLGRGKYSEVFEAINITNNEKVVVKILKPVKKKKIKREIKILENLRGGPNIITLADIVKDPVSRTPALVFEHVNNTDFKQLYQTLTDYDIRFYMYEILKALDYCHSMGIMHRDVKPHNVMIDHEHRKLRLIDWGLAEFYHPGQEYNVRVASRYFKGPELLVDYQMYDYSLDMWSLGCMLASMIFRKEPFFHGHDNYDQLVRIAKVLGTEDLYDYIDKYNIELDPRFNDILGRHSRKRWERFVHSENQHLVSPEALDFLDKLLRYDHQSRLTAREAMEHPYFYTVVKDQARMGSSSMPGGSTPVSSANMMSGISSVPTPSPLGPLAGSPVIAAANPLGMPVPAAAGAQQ
T1 sequence (P67870 whole entry partner): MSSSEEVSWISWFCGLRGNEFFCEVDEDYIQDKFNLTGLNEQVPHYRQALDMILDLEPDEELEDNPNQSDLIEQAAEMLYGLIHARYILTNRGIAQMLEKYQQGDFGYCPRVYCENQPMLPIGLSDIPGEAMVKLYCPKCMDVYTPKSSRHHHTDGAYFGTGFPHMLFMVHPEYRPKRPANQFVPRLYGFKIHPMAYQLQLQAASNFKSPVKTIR
Method: CK2 Kinase Assay was conducted using the protocol as described in Pierre F. et al; J. Med. Chem. 2011, 54, 635-654. The tested compounds in aqueous solution were added at a volume of 10 μL to a reaction mixture comprising 10 μL of assay dilution buffer (ADB; 20 mM MOPS, pH 7.2, 25 mM β-glycerol phosphate, 5 mM EGTA, 1 mM sodium orthovanadate, and 1 mM dithiothreitol), 10 μL of substrate peptide (RRRDDDSDDD, dissolved in ADB at a concentration of 1 mM), 10 μL of recombinant human CK2 (RROP-holoenzyme, 25 ng dissolved in ADB; Millipore). Reactions were initiated by the addition of 10 μL of ATP solution (90% 75 mMMgCl2, 75 μM ATP (final ATP concentration:15 μM) dissolved in ADB; 10% [γ-33P] ATP (stock 1 mCi/100 μL; 3000 Ci/mmol (Perkin-Elmer) and maintained for 10 min at 30° C. The reactions were quenched with 100 μL of 0.75% phosphoric acid and then transferred to and filtered through a phosphor cellulose filter plate (Millipore). After washing each well five times with 0.75% phosphoric acid, the plate was dried under vacuum for 5 min and, following the addition of 15 μL of scintillation fluid to each well, the residual radioactivity was measured using a Wallac luminescence counter. The IC50 values were derived from eight concentrations of test inhibitors.

PC3 (prostate) = assay: In vitro cytotoxic activity MTT assay, PC3; format: cell-based; settings: Homo sapiens, Prostate cell; PC3 (prostate) cells, exposed for 96 hours; read-out: IC50, concentration of compound eliciting a 50% inhibition of cell proliferation
Method: as §1

HL60 (leukemia) = assay: In vitro cytotoxic activity MTT assay, HL60; format: cell-based; settings: Homo sapiens, HL-60; HL60 (leukemia) cells, exposed for 96 hours; read-out: IC50, concentration of compound eliciting a 50% inhibition of cell proliferation
Method: as §1

HCT116 (colon) = assay: In vitro cytotoxic activity MTT assay, HCT116; format: cell-based; settings: Homo sapiens, HCT-116; HCT116 (colon) cells, exposed for 96 hours; read-out: IC50, concentration of compound eliciting a 50% inhibition of cell proliferation
Method: as §1

MIAPaCa-2 (pancreas) = assay: In vitro cytotoxic activity MTT assay, MIAPaCa-2; format: cell-based; settings: Homo sapiens, MIA PaCa-2; MIAPaCa-2 (pancreas) cells, exposed for 96 hours; read-out: IC50, concentration of compound eliciting a 50% inhibition of cell proliferation
Method: as §1

MCF7 (breast) = assay: In vitro cytotoxic activity MTT assay, MCF7; format: cell-based; settings: Homo sapiens; MCF7 (breast) cells, exposed for 96 hours; read-out: IC50, concentration of compound eliciting a 50% inhibition of cell proliferation
Method: as §1

MDA-MB-231 (breast) = assay: In vitro cytotoxic activity MTT assay, MDA-MB-231; format: cell-based; settings: Homo sapiens; MDA-MB-231 (breast) cells, exposed for 96 hours; read-out: IC50, concentration of compound eliciting a 50% inhibition of cell proliferation
Method: as §1

H1299 (lung) = assay: In vitro cytotoxic activity MTT assay, H1299; format: cell-based; settings: Homo sapiens, NCI-H1299; H1299 (lung) cells, exposed for 96 hours; read-out: IC50, concentration of compound eliciting a 50% inhibition of cell proliferation
Method: as §1

**Q.** With O=C(O)c1ccc2[nH]c3ncnc(Nc4cccc(Cl)c4)c3c2c1 [Example 1, 4-((3-chlorophenyl)amino)-9H-pyrimido[4,5-b]indole-6-carboxylic acid] as the molecule, how does the IC50 (A375 (melanoma)) read?
**A.** 3.3 µM

**Q.** What about the IC50 (recombinant human CK2) of the same molecule?
**A.** 0.068 µM

**Q.** What about the IC50 (PC3 (prostate)) of the same molecule?
**A.** 1.4 µM

**Q.** And the IC50 (HL60 (leukemia))?
**A.** 3 µM

**Q.** What about the IC50 (HCT116 (colon)) of the same molecule?
**A.** 1.8 µM

**Q.** And the IC50 (MIAPaCa-2 (pancreas))?
**A.** 0.9 µM

**Q.** What about the IC50 (MCF7 (breast)) of the same molecule?
**A.** 4.6 µM

**Q.** And the IC50 (MDA-MB-231 (breast))?
**A.** 2.9 µM

**Q.** And the IC50 (H1299 (lung))?
**A.** 4.5 µM
